# Measured values published in publication PMC8586955, “Interaction Study between ESIPT Fluorescent Lipophile-Based Benzazoles and BSA” (Molecules, 2021).
# Molecular target: T1, bovine serum albumin (BSA) (Bos taurus, UniProt P02769)
# T1 construct: gene ALB
# Assay: BSA intrinsic fluorescence quenching titration, ex […] nm
# Format: binding
# Conditions: double-log; PBS pH 7.2, 25 °C, BSA 11 µM, ligand 0-20 µM
# T1 sequence (P02769 25-607): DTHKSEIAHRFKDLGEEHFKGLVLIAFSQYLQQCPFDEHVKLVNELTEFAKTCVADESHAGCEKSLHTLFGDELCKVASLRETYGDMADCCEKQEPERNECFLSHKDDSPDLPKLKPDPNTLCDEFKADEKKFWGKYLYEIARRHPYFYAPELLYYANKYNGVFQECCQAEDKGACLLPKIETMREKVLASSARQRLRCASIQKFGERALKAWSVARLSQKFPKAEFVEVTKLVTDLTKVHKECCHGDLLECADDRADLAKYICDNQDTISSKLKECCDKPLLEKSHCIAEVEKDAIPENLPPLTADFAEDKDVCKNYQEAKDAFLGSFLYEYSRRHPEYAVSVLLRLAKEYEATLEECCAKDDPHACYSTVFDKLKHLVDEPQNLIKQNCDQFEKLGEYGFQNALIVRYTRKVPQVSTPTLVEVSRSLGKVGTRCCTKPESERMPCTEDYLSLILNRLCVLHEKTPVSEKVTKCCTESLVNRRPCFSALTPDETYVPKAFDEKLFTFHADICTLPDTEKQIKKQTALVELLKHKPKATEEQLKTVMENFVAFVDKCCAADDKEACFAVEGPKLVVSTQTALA
row,SMILES,KA (×10^4 M^-1)
1,"CCCCCCCCCCCCNCc1cc(C)c(O)c(-c2nc3ccccc3s2)c1 [compound 16, benzazole 16]",0.79 ×10^4 M^−1
2,"CCCCCCCCCCCCNCc1cc(C)c(O)c(-c2nc3ccccc3o2)c1 [compound 13, benzazole 13]",0.74 ×10^4 M^−1
3,"CCCCNCc1cc(C)c(O)c(-c2nc3ccccc3s2)c1 [compound 15, benzazole 15]",0.73 ×10^4 M^−1
4,"CCCCCCCCCCCCCCCCCCNCc1cc(C)c(O)c(-c2nc3ccccc3s2)c1 [compound 17, benzazole 17]",0.69 ×10^4 M^−1
5,"CCCCNCc1cc(C)c(O)c(-c2nc3ccccc3o2)c1 [compound 12, benzazole 12]",0.61 ×10^4 M^−1
6,"CCCCCCCCCCCCCCCCCCNCc1cc(C)c(O)c(-c2nc3ccccc3o2)c1 [compound 14, benzazole 14]",0.59 ×10^4 M^−1
